In patent publication US20240368163A1, “COMPOUNDS AND METHODS FOR MODULATING SPLICING” (REMIX THERAPEUTICS INC., priority 2021, published 2024):
pIC50: −log10 of the molar value.

Assays:
Format in all cases: cell-based, human
MYB [1] = test: Splicing RT-qPCR assay, MYB mRNA canonical junction (CJ) and alternative junction (AJ); settings: Homo sapiens; for AC50: increase in AJ mRNA
Method in brief: (§1)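 A673 or K562 cells treated 24 h at 37 °C with 11-point 3-fold dilutions, top 10 uM, DMSO ≤0.25%. Lysates read by RT-qPCR for CJ and AJ isoforms, normalized to GAPDH, GUSB or PPIA; ΔΔCt vs DMSO converted to RQ, then percent response.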

SMN2 = test: Splicing RT-qPCR panel, SMN2 canonical junction (CJ) mRNA; settings: Homo sapiens, RT-qPCR panel, canonical junction mRNA; compound concentration having 50% response in CJ decrease; read-out: SMN2 IC50 (decrease in CJ mRNA levels)
Method in brief: as §1

Target C [2] = test: Splicing RT-qPCR panel, Target C canonical junction (CJ) mRNA; settings: Homo sapiens, RT-qPCR panel, canonical junction mRNA; compound concentration having 50% response in CJ decrease; read-out: Target C IC50 (decrease in CJ mRNA levels)
Method in brief: as §1

HTT [3] = test: Splicing RT-qPCR assay, HTT mRNA canonical junction (CJ) and alternative junction (AJ); settings: Homo sapiens; for AC50: increase in AJ mRNA
Method in brief: as §1

HTT [4] = test: HiBiT protein abundance assay, HTT; settings: Homo sapiens, K562, 24 h, Table 13A, modified K562 cells
Method in brief: (§2)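 Luminescent readout from lytic HiBiT/LgBiT complementation reports endogenous tagged protein level in engineered K562 cells. Compounds dosed 24 h, top 10 μM final, 3-fold steps, 10 points. IC50 is the concentration giving 50% of untreated-control abundance, from 4-parameter logistic fit.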

Target C [5] = test: HiBiT protein abundance assay, Target C; settings: Homo sapiens, K562, 24 h, Table 13A, modified K562 cells
Method in brief: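 Knock-in HiBiT clones, 10000/well; 10-pt 3-fold titration, top 10 μM final; DMSO ≤0.25%; 24 h, 37 °C, 5% CO2. Lytic HiBiT luminescence readout. 4PL fit, IC50 = concentration giving 50% of untreated abundance.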

MYB [6] = test: HiBiT protein abundance assay, MYB; settings: Homo sapiens, K562, 24 h, Table 13A, modified K562 cells
Method in brief: as §2

[7] = 24 h, decrease in CJ mRNA, A673 or K562 cells, 24 hours treatment, RT-qPCR, read-out: MYB CJ IC50
[8] = 24 h, A673 or K562 cells, 24 hours treatment, RT-qPCR
[9] = RT-qPCR panel, canonical junction mRNA, compound concentration having 50% response in CJ decrease, read-out: MYB IC50 (decrease in CJ mRNA levels)
[10] = 24 h, decrease in CJ mRNA, A673 or K562 cells, 24 hours treatment, RT-qPCR, read-out: HTT CJ IC50
[11] = RT-qPCR panel, canonical junction mRNA, compound concentration having 50% response in CJ decrease, read-out: HTT IC50 (decrease in CJ mRNA levels)

Row | SMILES | pIC50 (MYB [1]; [7]) | AC50 (MYB [1]; [8]) | pIC50 (MYB [1]; [9]) | pIC50 (SMN2) | pIC50 (Target C [2]) | pIC50 (HTT [3]; [10]) | AC50 (HTT [3]; [8]) | pIC50 (HTT [3]; [11]) | pIC50 (HTT [4]) | pIC50 (Target C [5]) | pIC50 (MYB [6])
1 | c1nc2c(-c3cn[nH]c3)ccc(-c3ccc(N4CC5(CCNCC5)C4)nn3)c2s1 [Compound 197] | < 5.00 | > 10000 nM | < 5.00 | 5.00 to 6.00 | < 5.00 | 5.00 to 6.00 | 1000 to 10000 nM | 5.00 to 6.00 | 5.00 to 6.00 | 5.00 to 6.00 | 5.00 to 6.00
2 | CN1C[C@@H]2CN(c3ccc(-c4ccc(-c5cn[nH]c5)c5ncsc45)nn3)C[C@@H]2C1 [Compound 198] | < 5.00 | > 10000 nM | < 5.00 | 6.00 to 7.00 | < 5.00 | < 5.00 | > 10000 nM | < 5.00 | < 5.00 | < 5.00 | 5.00 to 6.00
3 | c1nc2c(-c3cn[nH]c3)ccc(-c3ccc(S[C@@H]4C[C@H]5CC[C@@H](C4)N5)nn3)c2s1 [Compound 200] | < 5.00 | > 10000 nM | < 5.00 | < 5.00 | < 5.00 | < 5.00 | > 10000 nM | < 5.00 | 5.00 to 6.00 | 5.00 to 6.00 | 5.00 to 6.00
4 | Cc1ncc(-c2ccc(-c3ccc(N(C)C4CC(C)(C)NC(C)(C)C4)nc3)c3ncsc23)o1 [Compound 201] | 5.00 to 6.00 | 1000 to 10000 nM | 5.00 to 6.00 | 6.00 to 7.00 | 5.00 to 6.00 | 5.00 to 6.00 | 1000 to 10000 nM | 5.00 to 6.00 | 5.00 to 6.00 | < 5.00 | 5.00 to 6.00
5 | CN(c1ccc(-c2ccc(-c3cn[nH]c3)c3ncsc23)nn1)[C@H]1[C@@H]2CNC[C@@H]21 [Compound 205] | < 5.00 | > 10000 nM | < 5.00 | 5.00 to 6.00 | < 5.00 | < 5.00 | > 10000 nM | < 5.00 | < 5.00 | 5.00 to 6.00 | 5.00 to 6.00
6 | c1nc2c(-c3cn[nH]c3)ccc(-c3ccc(C4CCNCC4)nn3)c2s1 [Compound 206] | 5.00 to 6.00 | 100 to 1000 nM | 5.00 to 6.00 | > 7.00 | < 5.00 | 5.00 to 6.00 | > 10000 nM | 5.00 to 6.00 | 5.00 to 6.00 | < 5.00 | 5.00 to 6.00
7 | CN(c1ccc(-c2ccc(-c3cnn(C)c(=O)c3)c3scnc23)nn1)C1CC(C)(C)NC(C)(C)C1 [Compound 211] | 6.00 to 7.00 | 100 to 1000 nM | 6.00 to 7.00 | 6.00 to 7.00 | 6.00 to 7.00 | 6.00 to 7.00 | 100 to 1000 nM | 6.00 to 7.00 | 6.00 to 7.00 | 6.00 to 7.00 | 6.00 to 7.00
8 | c1nc2c(-c3cn[nH]c3)ccc(-c3ccc(NC4CCNCC4)nn3)c2s1 [Compound 214] | 5.00 to 6.00 | > 10000 nM | 5.00 to 6.00 | 6.00 to 7.00 | < 5.00 | < 5.00 | 1000 to 10000 nM | < 5.00 | 5.00 to 6.00 | < 5.00 | 5.00 to 6.00
9 | c1n[nH]cc1-c1ccc(-c2ccc(N3CC4(CCCNC4)C3)nn2)c2[nH]ncc12 [Compound 218] | < 5.00 | > 10000 nM | < 5.00 | < 5.00 | < 5.00 | < 5.00 | > 10000 nM | < 5.00 | < 5.00 | < 5.00 | < 5.00
10 | c1nc2c(-c3cn[nH]c3)ccc(-c3ccc(O[C@@H]4C[C@H]5CCC[C@@H](C4)N5)nn3)c2[nH]1 [Compound 219] | 6.00 to 7.00 | 100 to 1000 nM | 6.00 to 7.00 | > 7.00 | 6.00 to 7.00 | 6.00 to 7.00 | 100 to 1000 nM | 6.00 to 7.00 | > 7.00 | 6.00 to 7.00 | 6.00 to 7.00
11 | CC1(C)CC(Oc2ccc(-c3ccc(-c4cn[nH]c4)c4cn[nH]c34)nn2)CCN1 (stereo not drawn) [Compound 220] | 5.00 to 6.00 | > 10000 nM | 5.00 to 6.00 | 6.00 to 7.00 | < 5.00 | 5.00 to 6.00 | > 10000 nM | 5.00 to 6.00 | 5.00 to 6.00 | < 5.00 | 5.00 to 6.00
12 | c1n[nH]cc1-c1ccc(-c2ccc(S[C@@H]3C[C@H]4CC[C@@H](C3)N4)nn2)c2[nH]ncc12 [Compound 221] | < 5.00 | > 10000 nM | < 5.00 | < 5.00 | < 5.00 | < 5.00 | > 10000 nM | < 5.00 | 5.00 to 6.00 | 5.00 to 6.00 | 5.00 to 6.00
13 | CN(c1ccc(-c2ccc(-c3cn[nH]c3)c3ncsc23)nn1)C1CCNCC1 [Compound 222] | 5.00 to 6.00 | 1000 to 10000 nM | 5.00 to 6.00 | 6.00 to 7.00 | 5.00 to 6.00 | 5.00 to 6.00 | 1000 to 10000 nM | 5.00 to 6.00 | 6.00 to 7.00 | 5.00 to 6.00 | 5.00 to 6.00
14 | [2H]C([2H])([2H])N(c1ccc(-c2ccc(-c3cn[nH]c3)c3ncsc23)nn1)C1CCNCC1 [Compound 223] | 5.00 to 6.00 | > 10000 nM | 5.00 to 6.00 | 6.00 to 7.00 | 5.00 to 6.00 | 5.00 to 6.00 | 1000 to 10000 nM | 5.00 to 6.00 | 5.00 to 6.00 | 5.00 to 6.00 | 5.00 to 6.00
15 | CCN(c1ccc(-c2ccc(-c3cn[nH]c3)c3ncsc23)nn1)C1CCNCC1 [Compound 224] | 5.00 to 6.00 | > 10000 nM | 5.00 to 6.00 | 5.00 to 6.00 | < 5.00 | < 5.00 | > 10000 nM | < 5.00 | 5.00 to 6.00 | 5.00 to 6.00 | 6.00 to 7.00
16 | CCN(c1ccc(-c2ccc(-c3cn[nH]c3)c3ncsc23)nn1)C1CC(C)(C)NC(C)(C)C1 [Compound 225] | 6.00 to 7.00 | > 10000 nM | 6.00 to 7.00 | 6.00 to 7.00 | 5.00 to 6.00 | 5.00 to 6.00 | 1000 to 10000 nM | 5.00 to 6.00 | 6.00 to 7.00 | 5.00 to 6.00 | 6.00 to 7.00
17 | c1n[nH]cc1-c1ccc(-c2ccc(N3CC4(CCNCC4)C3)nn2)c2[nH]ncc12 [Compound 229] | 5.00 to 6.00 | 1000 to 10000 nM | 5.00 to 6.00 | 5.00 to 6.00 | 5.00 to 6.00 | 5.00 to 6.00 | 1000 to 10000 nM | 5.00 to 6.00 | 5.00 to 6.00 | 5.00 to 6.00 | 5.00 to 6.00
18 | c1n[nH]cc1-c1ccc(-c2ccc(OC3CCNCC3)nn2)c2[nH]ncc12 [Compound 230] | < 5.00 | > 10000 nM | < 5.00 | 5.00 to 6.00 | < 5.00 | < 5.00 | > 10000 nM | < 5.00 | 5.00 to 6.00 | < 5.00 | 5.00 to 6.00
19 | [2H]C([2H])([2H])N(c1ccc(-c2ccc(-c3cn[nH]c3)c3ncsc23)nn1)C1CC(C)(C)NC(C)(C)C1 [Compound 231] | 6.00 to 7.00 | 100 to 1000 nM | 6.00 to 7.00 | > 7.00 | 6.00 to 7.00 | 6.00 to 7.00 | 100 to 1000 nM | 6.00 to 7.00 | > 7.00 | 6.00 to 7.00 | 6.00 to 7.00
20 | Cn1cc(-c2ccc(-c3ccc(OC4CC(C)(C)NC(C)(C)C4)nn3)c3[nH]ncc23)cn1 [Compound 232] | 5.00 to 6.00 | 100 to 1000 nM | 5.00 to 6.00 | 6.00 to 7.00 | 5.00 to 6.00 | 5.00 to 6.00 | 100 to 1000 nM | 5.00 to 6.00 | 6.00 to 7.00 | 5.00 to 6.00 | 5.00 to 6.00
21 | COc1cc(-c2ccc(-c3ccc(N(C)C4CC(C)(C)NC(C)(C)C4)nn3)c3ncsc23)cnn1 [Compound 233] | 6.00 to 7.00 | 100 to 1000 nM | 6.00 to 7.00 | 6.00 to 7.00 | 6.00 to 7.00 | 6.00 to 7.00 | 100 to 1000 nM | 6.00 to 7.00 | 6.00 to 7.00 | 6.00 to 7.00 | 6.00 to 7.00
